Source: patent publication US4596820A, “1,7-diphenyl-3-methylaza-7-cyano-8-methylnonane for use in the treatment of diseases” (priority 1983, dated 1986)

Columns and labels:
[1] = system: hypoxic reduction in the level of creatine phosphate, adenosine triphosphate and glycogen in the heart muscle; assay: animal or person; type: in vivo, rat (male Wistar); details: for ED 50% (pretreatment dose which increases the ATP level by 50% compared with the hypoxic control group): 360 min; for Relative activity: relative to (±) A = 1
Experimental: Male Wistar rats weighing 250-300 g were anesthetized intraperitoneally with thiobutabarbital (100 mg/kg of body weight) and then subjected to standardized ventilation with an oxygen-deficient mixture (2% of O2 and 98% of N2) for 7 minutes. Using the freeze-stop technique, the apex of the heart was removed, mechanically comminuted and then digested with the addition of 0.6N perchloric acid. After centrifuging, creatine phosphate (according to Bergmeyer, H. U., Methoden der enzymatischen Analyse, Verlag Chemie, Weinheim, 2, (1974), 1825), adenosine triphosphate (according to Biochem. Biophys. Acta (Amst.) 1 (1947), 292) and glycogen (according to Biochem. J. 56 (1954), 1825) were determined in the supernatant liquid.
The test substances were administered to the conscious animals at various times before they were anesthetized and before the subsequent ventilation with an oxygen-deficient mixture. The percentage difference in the myocardial concentrations of adenosine triphosphate (ATP), creatine phosphate (CP) and glycogen in animals pretreated with the test substance compared with untreated hypoxic control animals was determined.
The ED 50% is the pretreatment dose of test substance which
increases the ATP level by 50% compared with the hypoxic

cerebral hypoxia = assay: Tolerance of the mouse to hypoxia (survival of oxygen-deficient ventilation); type: in vivo, mouse (female NMRI Ivanovas); details: for ED 50% (dose at which 50% of the animals survived oxygen-deficient ventilation for 3 minutes): 60 min; for Effect on number of animals surviving hypoxia after 3 minutes: 96.5% N2 and 3.5% O2, dose-dependent for A and its antipodes
Experimental: To test for tolerance to hypoxia, female mice (NMRI Ivanovas, weight 24-26 g) were introduced individually into glass tubes through which a gas mixture consisting of 96.5% of N2 and 3.5% of O2 flowed via a rotameter, at a rate of 4 liters/min. The time from the beginning of passage of the gas mixture until death occurred was measured.
Tolerance of the mouse to hypoxia, test carried out 1 hour
after oral administration of the test substances.
ED 50% means that, at the stated dose, 50% of the animals
survived oxygen-deficient ventilation for 3 minutes.

[2] = system: PQ interval and myocardial contractility; assay: PQ interval and myocardial contractility in anesthetized pigs; type: in vivo, pig; details: 0.2 mg/kg intravenously
AV conduction = assay: Effect on AV conduction in the dog; type: in vivo
Experimental: The effect on the AV conduction was tested on a species suitable for this purpose, ie. the dog.

[3] = system: heart and the circulation; details: similar doses; cited from earlier work
[4] = in vivo
[5] = Overall findings (oral availability, duration of action, toleration); details: in vivo
[6] = system: blood pressure and heart rate; assay: Blood pressure and heart rate of conscious spontaneously hypertensive rats; type: in vivo; details: 20 mg/kg oral
[7] = rat, 6 hours after oral administration
[8] = mouse, 1 hour after oral administration
[9] = 20 mg/kg oral, 6 hours after administration (Table 3, comparison with verapamil)
[10] = 40 mg/kg oral, 6 hours after administration
[11] = 80 mg/kg oral, 6 hours after administration
[12] = 5 mg/kg oral, 6 hours after administration, vs untreated hypoxic controls
[13] = 10 mg/kg oral, 6 hours after administration, vs untreated hypoxic controls
[14] = 20 mg/kg oral, 2 hours after administration
[15] = 20 mg/kg oral, 6 hours after administration (Table 2)
[16] = 20 mg/kg oral, 6 hours after administration, vs untreated hypoxic controls (Table 1)
[17] = 20 mg/kg oral, 12 hours after administration
[18] = 20 mg/kg oral, 18 hours after administration
[19] = 20 mg/kg oral, 24 hours after administration

CC(C)C(C#N)(CCCN(C)CCc1ccccc1)c1ccccc1 (single isomer, unassigned; (+)) [(+) A, (+)-1,7-Diphenyl-3-methylaza-7-cyano-8-methylnonane]
Efficacy relative to the racemate [1, 7]: about one fourth of the efficacy of the racemate
ED 50% (pretreatment dose which increases the ATP level by 50% compared with the hypoxic control group) [1, 7]: 50.3 mg/kg
Relative activity [1, 7]: 0.27
ED 50% (dose at which 50% of the animals survived oxygen-deficient ventilation for 3 minutes) (cerebral hypoxia; [8]): 100 mg/kg

COc1ccc(CCN(C)CCCC(C#N)(c2ccc(OC)c(OC)c2)C(C)C)cc1OC (centres unmarked) [verapamil, reference compound]
Myocardial contractility (maximum systolic rate of increase in pressure in the left ventricle) [2]: reduction in the myocardial contractility
PQ interval [2]: pronounced increase in the PQ interval
Percentage difference in the amount of ATP [1, 9]: 0%
Percentage difference in the amount of CP [1, 9]: -9%
Percentage difference in the amount of Glycogen [1, 9]: 9%
Percentage difference in the amount of ATP [1, 10]: 9%
Percentage difference in the amount of CP [1, 10]: 9%
Percentage difference in the amount of Glycogen [1, 10]: -5%
Percentage difference in the amount of ATP [1, 11]: 20%
Percentage difference in the amount of CP [1, 11]: 21%
Percentage difference in the amount of Glycogen [1, 11]: 2%
Protective action against the hypoxia-induced reduction in myocardial CP, ATP and glycogen ([1]; same dose as A or up to 4 times higher, 6 hours after oral administration): no significant protective action
Effect on number of animals surviving hypoxia after 3 minutes (cerebral hypoxia): ineffective
Survival of pretreated animals (cerebral hypoxia; after 3 minutes of hypoxia): dead after 3 minutes
AV block (AV conduction; 0.4 mg/kg intravenously): causes second degree AV blocks in all experimental animals
PQ interval (AV conduction; 0.4 mg/kg intravenously): greatly prolongs the PQ interval
Known effects on the heart and the circulation [3]: reduction in blood pressure and inhibition of AV conduction

CC(C)C(C#N)(CCCN(C)CCc1ccccc1)c1ccccc1 (single isomer, unassigned; (-)) [(-) A, (-)-1,7-Diphenyl-3-methylaza-7-cyano-8-methylnonane]
Effective dose compared with that of the antipode [1, 7]: substantially lower than that of the dextrorotatory antipode
Efficacy relative to the racemate [1, 7]: about twice as effective as the racemate
ED 50% (pretreatment dose which increases the ATP level by 50% compared with the hypoxic control group) [1, 7]: 6.6 mg/kg
Relative activity [1, 7]: 2.06
Effect on number of animals surviving hypoxia after 3 minutes (cerebral hypoxia): increase the number of experimental animals which survive after 3 minutes
ED 50% (dose at which 50% of the animals survived oxygen-deficient ventilation for 3 minutes) (cerebral hypoxia; [8]): 48 mg/kg

CC(C)C(C#N)(CCCN(C)CCc1ccccc1)c1ccccc1 (racemic) [A, 1,7-diphenyl-3-methylaza-7-cyano-8-methylnonane]
Reduction in the blood pressure [4]: does not result in a reduction in the blood pressure
Toleration [4]: particularly well tolerated
Inhibition of the hypoxic reduction in CP, ATP and glycogen in the heart muscle ([1]; 5 mg/kg oral (lowest dose tested)): substantially inhibits the hypoxic reduction in the level of creatine phosphate, adenosine triphosphate and glycogen in the heart muscle
Percentage difference in the amount of ATP [1, 12]: 24%
Percentage difference in the amount of CP [1, 12]: 29%
Percentage difference in the amount of Glycogen [1, 12]: 10%
Percentage difference in the amount of ATP [1, 13]: 37%
Percentage difference in the amount of CP [1, 13]: 47%
Percentage difference in the amount of Glycogen [1, 13]: 27%
Percentage difference in the amount of ATP [1, 14]: 31%
Percentage difference in the amount of CP [1, 14]: 41%
Percentage difference in the amount of Glycogen [1, 14]: -1%
Percentage difference in the amount of ATP [1, 15]: 63%
Percentage difference in the amount of CP [1, 15]: 80%
Percentage difference in the amount of Glycogen [1, 15]: 50%
Percentage difference in the amount of ATP [1, 9]: 63%
Percentage difference in the amount of CP [1, 9]: 80%
Percentage difference in the amount of Glycogen [1, 9]: 50%
Percentage difference in the amount of ATP [1, 16]: 63%
Percentage difference in the amount of CP [1, 16]: 80%
Percentage difference in the amount of Glycogen [1, 16]: 50%
Percentage difference in the amount of ATP [1, 17]: 42%
Percentage difference in the amount of CP [1, 17]: 42%
Percentage difference in the amount of Glycogen [1, 17]: 19%
Percentage difference in the amount of ATP [1, 18]: 40%
Percentage difference in the amount of CP [1, 18]: 32%
Percentage difference in the amount of Glycogen [1, 18]: 16%
Percentage difference in the amount of ATP [1, 19]: 11%
Percentage difference in the amount of CP [1, 19]: 22%
Percentage difference in the amount of Glycogen [1, 19]: 26%
Cardioprotective effect at the dose ([1]; 20 mg/kg oral, rat): maximum cardioprotective effect
Onset of protective effect ([1]; 20 mg/kg oral, CP and ATP): clearly detectable for the parameters CP and ATP as soon as 2 hours after administration
Duration of protective effect ([1]; 20 mg/kg, CP and ATP): up to 24 hours
Cardioprotective action compared with verapamil ([1]; 6 hours after oral administration): substantially superior to that of verapamil
ED50 ([1]; Rattus norvegicus, po, 6 h, rat, 6 hours after oral administration, read-out: ED 50% (pretreatment dose which increases the ATP level by 50% compared with the hypoxic control group)): 13.6 mg/kg
Dose dependence of protective effect ([1]; oral, rat): An increase in dose results in a greater protective effect
Relative activity [1, 7]: 1
Toleration of the dose ([1]; rat, in vivo): well tolerated
Effect on number of animals surviving hypoxia after 3 minutes (cerebral hypoxia): increase the number of experimental animals which survive after 3 minutes
ED50 (cerebral hypoxia; Mus musculus, po, 1 h, mouse, 1 hour after oral administration, read-out: ED 50% (dose at which 50% of the animals survived oxygen-deficient ventilation for 3 minutes)): 88 mg/kg
Protective action against cerebral hypoxia compared with verapamil (cerebral hypoxia; mouse): superior protective action, compared with verapamil
Risk of provoking conduction disturbances compared with verapamil (AV conduction; in vivo): substantially lower in the case of A than for verapamil
Therapeutic index compared with verapamil (AV conduction; in vivo): substantially greater therapeutic index than verapamil
Effect on AV conduction (AV conduction; in vivo, iv, 0.4 mg/kg): no adverse effect at all on the AV conduction
Duration of action [5]: long duration of action
Oral availability ([5]; po): great oral availability
Blood pressure, Change in % ([6]; 6 hours after administration): -5%
Heart rate, Change in % ([6]; 6 hours after administration): -5%
Blood pressure, 6 hours after administration of the substance ([6]; initial value 229): 217
Heart rate, 6 hours after administration of the substance ([6]; initial value 398): 378
